# Measurements published in patent US11292807B2 (OCEANS LTD., priority 2015, dated 2022).
# Where two headings read alike, the source gives them in different places.
# What was measured:
# MDA-MB [1] = conditions: MDA-MB
# MDA-MB [2] = test: cells; conditions: Homo sapiens, read-out: Average cell viability, MDA-MB
# PC3 = test: CIMA assay, cell viability, PC3; conditions: for Fold change in viability AVG / In vitro activity against cancer cell lines, PC3 AVG: PC3
# [3] = test system: U373 (glioblastoma-astrocytoma); test: CIMA assay, cell viability, U373; conditions: for Fold change in viability AVG / In vitro activity against cancer cell lines, U373 AVG: U373
# Protocol: (§1) Stock solutions of the extracts were prepared in dimethylsulfoxide (DMSO) at 10 mg/mL and stored in 200 μl aliquots at −20° C. until analysis. This preparation ensured that the DMSO delivered to cells in culture never exceeded 1%.
# (§2) Prepared extracts were assessed following chronic exposure conditions in which cells were seeded at 2×10^3 cells/well (96 well-plate) and incubated with test compounds for 72 h. Each compound was evaluated over a range of concentrations (0, 10, 25, 50 or 100 μg/ml). Cell proliferation was initially assessed using a standard colorimetric indicator of metabolic activity (CIMA) assay. In this assay, tetrazole reduction was evaluated as a measure of metabolic function that evaluates mitochondrial activity to determine the extent of cell proliferation within a culture. This assay is based on the reduction of yellow tetrazolium salt to purple formazan by mitochondrial reductases enzyme in viable cells, resulting in a color changed that confers a change in absorbance.
# [4] = test system: SKOV3 (ovarian adenocarcinoma); test: CIMA assay, cell viability, SKOV3; conditions: for Fold change in viability AVG / In vitro activity against cancer cell lines, SKOV AVG: SKOV
# Protocol: as §1, §2
# [5] = test system: THP-1 (acute monocytic leukemia); test: CIMA assay, cell viability, THP-1; conditions: for Fold change in viability AVG / In vitro activity against cancer cell lines, THP-1 AVG: THP-1
# [6] = CIMA assay, cell viability, CCD1079SK; conditions: human, Average cell viability, CCD
# [7] = test system: CCD1079SK (fibroblast, noncancerous but proliferating); test: CIMA assay, cell viability, CCD1079SK; conditions: CCD
# A549 (lung carcinoma) = test: CIMA assay (colorimetric indicator of metabolic activity), cell viability, A549; conditions: for Fold change in viability AVG / In vitro activity against cancer cell lines, A549 AVG: A549
structure (smiles),measurement,setting,value
"CCCCCCCCCCCCCCCC(=O)OCC(COC1OC(CO)C(O)C(O)C1O)OC(=O)CCCCCCCCCCCCC (centres unmarked) [Compound 16, MGDG C16:0/C14:0]",Fold change in viability AVG,MDA-MB [1]; 1 ug/mL,1.08
same,"In vitro activity against cancer cell lines, MDA-MB AVG",MDA-MB [1]; 1 ug/mL,1.08
same,Fold change in viability AVG,MDA-MB [1]; 10 ug/mL,1.09
same,"In vitro activity against cancer cell lines, MDA-MB AVG",MDA-MB [1]; 10 ug/mL,1.09
same,Fold change in viability AVG,MDA-MB [1]; 50 ug/mL,0.76
same,"In vitro activity against cancer cell lines, MDA-MB AVG",MDA-MB [1]; 50 ug/mL,0.76
same,Fold change in viability AVG,MDA-MB [1]; 100 ug/mL,0.21
same,"In vitro activity against cancer cell lines, MDA-MB AVG",MDA-MB [1]; 100 ug/mL,0.21
same,viability at 1 µg/mL,MDA-MB [2]; 1 ug/mL,99%
same,viability at 10 µg/mL,MDA-MB [2]; 10 ug/mL,101%
same,viability at 50 µg/mL,MDA-MB [2]; 50 ug/mL,70%
same,viability at 100 µg/mL,MDA-MB [2]; 100 ug/mL,20%
same,viability at 1 µg/mL,"PC3; Homo sapiens, PC-3, read-out: Average cell viability, PC3, 1 ug/mL",100%
same,viability at 10 µg/mL,"PC3; Homo sapiens, PC-3, read-out: Average cell viability, PC3, 10 ug/mL",96%
same,viability at 50 µg/mL,"PC3; Homo sapiens, PC-3, read-out: Average cell viability, PC3, 50 ug/mL",72%
same,viability at 100 µg/mL,"PC3; Homo sapiens, PC-3, read-out: Average cell viability, PC3, 100 ug/mL",9%
same,Fold change in viability AVG,PC3; 1 ug/mL,1.04
same,"In vitro activity against cancer cell lines, PC3 AVG",PC3; 1 ug/mL,1.04
same,Fold change in viability AVG,PC3; 10 ug/mL,0.99
same,"In vitro activity against cancer cell lines, PC3 AVG",PC3; 10 ug/mL,0.99
same,Fold change in viability AVG,PC3; 50 ug/mL,0.75
same,"In vitro activity against cancer cell lines, PC3 AVG",PC3; 50 ug/mL,0.75
same,Fold change in viability AVG,PC3; 100 ug/mL,0.10
same,"In vitro activity against cancer cell lines, PC3 AVG",PC3; 100 ug/mL,0.10
same,viability at 1 µg/mL,"[3]; Homo sapiens, U373 MG, read-out: Average cell viability, U373, 1 ug/mL",108%
same,viability at 10 µg/mL,"[3]; Homo sapiens, U373 MG, read-out: Average cell viability, U373, 10 ug/mL",95%
same,viability at 50 µg/mL,"[3]; Homo sapiens, U373 MG, read-out: Average cell viability, U373, 50 ug/mL",48%
same,viability at 100 µg/mL,"[3]; Homo sapiens, U373 MG, read-out: Average cell viability, U373, 100 ug/mL",9%
same,Fold change in viability AVG,[3]; 1 ug/mL,1.09
same,"In vitro activity against cancer cell lines, U373 AVG",[3]; 1 ug/mL,1.09
same,Fold change in viability AVG,[3]; 10 ug/mL,0.97
same,"In vitro activity against cancer cell lines, U373 AVG",[3]; 10 ug/mL,0.97
same,Fold change in viability AVG,[3]; 50 ug/mL,0.49
same,"In vitro activity against cancer cell lines, U373 AVG",[3]; 50 ug/mL,0.49
same,Fold change in viability AVG,[3]; 100 ug/mL,0.09
same,"In vitro activity against cancer cell lines, U373 AVG",[3]; 100 ug/mL,0.09
same,viability at 1 µg/mL,"[4]; Homo sapiens, SK-OV-3, read-out: Average cell viability, SKOV, 1 ug/mL",102%
same,viability at 10 µg/mL,"[4]; Homo sapiens, SK-OV-3, read-out: Average cell viability, SKOV, 10 ug/mL",95%
same,viability at 50 µg/mL,"[4]; Homo sapiens, SK-OV-3, read-out: Average cell viability, SKOV, 50 ug/mL",83%
same,viability at 100 µg/mL,"[4]; Homo sapiens, SK-OV-3, read-out: Average cell viability, SKOV, 100 ug/mL",68%
same,Fold change in viability AVG,[4]; 1 ug/mL,1.09
same,"In vitro activity against cancer cell lines, SKOV AVG",[4]; 1 ug/mL,1.09
same,Fold change in viability AVG,[4]; 10 ug/mL,1.02
same,"In vitro activity against cancer cell lines, SKOV AVG",[4]; 10 ug/mL,1.02
same,Fold change in viability AVG,[4]; 50 ug/mL,0.90
same,"In vitro activity against cancer cell lines, SKOV AVG",[4]; 50 ug/mL,0.90
same,Fold change in viability AVG,[4]; 100 ug/mL,0.74
same,"In vitro activity against cancer cell lines, SKOV AVG",[4]; 100 ug/mL,0.74
same,viability at 1 µg/mL,"[5]; Homo sapiens, THP-1, read-out: Average cell viability, THP-1, 1 ug/mL",101%
same,viability at 10 µg/mL,"[5]; Homo sapiens, THP-1, read-out: Average cell viability, THP-1, 10 ug/mL",101%
same,viability at 50 µg/mL,"[5]; Homo sapiens, THP-1, read-out: Average cell viability, THP-1, 50 ug/mL",86%
same,viability at 100 µg/mL,"[5]; Homo sapiens, THP-1, read-out: Average cell viability, THP-1, 100 ug/mL",46%
same,Fold change in viability AVG,[5]; 1 ug/mL,1.14
same,"In vitro activity against cancer cell lines, THP-1 AVG",[5]; 1 ug/mL,1.14
same,Fold change in viability AVG,[5]; 10 ug/mL,1.15
same,"In vitro activity against cancer cell lines, THP-1 AVG",[5]; 10 ug/mL,1.15
same,Fold change in viability AVG,[5]; 50 ug/mL,0.75
same,"In vitro activity against cancer cell lines, THP-1 AVG",[5]; 50 ug/mL,0.75
same,Fold change in viability AVG,[5]; 100 ug/mL,0.52
same,"In vitro activity against cancer cell lines, THP-1 AVG",[5]; 100 ug/mL,0.52
same,"viability at 72 h, 1 ug/mL","[6]; CCD1079SK fibroblast cells (noncancerous, proliferating), 1 ug/mL",106%
same,"viability at 72 h, 10 ug/mL","[6]; CCD1079SK fibroblast cells (noncancerous, proliferating), 10 ug/mL",98%
same,"viability at 72 h, 50 ug/mL","[6]; CCD1079SK fibroblasts (noncancerous, proliferating), 50 ug/mL",44%
same,"viability at 72 h, 100 ug/mL","[6]; CCD1079SK fibroblasts (noncancerous, proliferating), 100 ug/mL",19%
same,Fold change in viability AVG,[7]; 1 ug/mL,1.16
same,Fold change in viability AVG,[7]; 10 ug/mL,1.08
same,Fold change in viability AVG,[7]; 50 ug/mL,0.48
same,Fold change in viability AVG,[7]; 100 ug/mL,0.21
same,Fold change in viability AVG,A549 (lung carcinoma); 1 ug/mL,1.13
same,"In vitro activity against cancer cell lines, A549 AVG",A549 (lung carcinoma); 1 ug/mL,1.13
same,Fold change in viability AVG,A549 (lung carcinoma); 10 ug/mL,1.16
same,"In vitro activity against cancer cell lines, A549 AVG",A549 (lung carcinoma); 10 ug/mL,1.16
same,Fold change in viability AVG,A549 (lung carcinoma); 50 ug/mL,0.99
same,"In vitro activity against cancer cell lines, A549 AVG",A549 (lung carcinoma); 50 ug/mL,0.99
same,Fold change in viability AVG,A549 (lung carcinoma); 100 ug/mL,0.60
same,"In vitro activity against cancer cell lines, A549 AVG",A549 (lung carcinoma); 100 ug/mL,0.60
same,viability at 1 µg/mL,"A549 (lung carcinoma); Homo sapiens, A549, read-out: Average cell viability, A549, 1 ug/mL",97%
same,viability at 10 µg/mL,"A549 (lung carcinoma); Homo sapiens, A549, read-out: Average cell viability, A549, 10 ug/mL",99%
same,viability at 50 µg/mL,"A549 (lung carcinoma); Homo sapiens, A549, read-out: Average cell viability, A549, 50 ug/mL",85%
same,viability at 100 µg/mL,"A549 (lung carcinoma); Homo sapiens, A549, read-out: Average cell viability, A549, 100 ug/mL",52%
